The source made the active and inactive calls.
How the values were obtained:
[1] = biological target: T1, C-C chemokine receptor type 7 (Homo sapiens) (UniProt P32248); test: Antagonist activity at CCR7 (unknown origin) assessed as inhibition of chemotaxis at 10 uM
T1 sequence (whole entry): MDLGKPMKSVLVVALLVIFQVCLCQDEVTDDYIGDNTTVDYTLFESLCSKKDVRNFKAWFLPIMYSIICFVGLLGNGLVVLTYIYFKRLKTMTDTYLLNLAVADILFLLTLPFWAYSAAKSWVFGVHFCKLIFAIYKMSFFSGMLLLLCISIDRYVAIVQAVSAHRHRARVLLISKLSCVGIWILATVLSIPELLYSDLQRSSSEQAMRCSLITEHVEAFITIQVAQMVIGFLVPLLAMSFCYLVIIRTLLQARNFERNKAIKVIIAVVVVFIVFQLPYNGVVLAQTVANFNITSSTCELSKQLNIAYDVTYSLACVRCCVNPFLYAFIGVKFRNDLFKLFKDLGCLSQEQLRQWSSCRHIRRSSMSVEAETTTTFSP

[2] = biological target: T2, C-C chemokine receptor type 9 (Homo sapiens) (UniProt P51686); test: Antagonist activity at CCR9 (unknown origin) assessed as inhibition of chemotaxis at 10 uM
T2 sequence (whole entry): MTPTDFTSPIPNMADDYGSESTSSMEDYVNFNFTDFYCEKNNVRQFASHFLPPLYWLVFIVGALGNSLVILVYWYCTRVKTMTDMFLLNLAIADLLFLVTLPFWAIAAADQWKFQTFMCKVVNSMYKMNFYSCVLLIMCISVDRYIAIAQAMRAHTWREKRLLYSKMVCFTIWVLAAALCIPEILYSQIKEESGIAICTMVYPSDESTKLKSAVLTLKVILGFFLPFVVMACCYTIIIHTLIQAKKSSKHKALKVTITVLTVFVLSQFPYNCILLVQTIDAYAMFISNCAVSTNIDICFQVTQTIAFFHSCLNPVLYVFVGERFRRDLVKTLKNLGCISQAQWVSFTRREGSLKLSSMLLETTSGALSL

[3] = biological target: C-X-C chemokine receptor type 6 (Homo sapiens) (UniProt O00574); test: Binding affinity to CXCR6 (unknown origin) at 10 uM by radioligand displacement assay
Sequence of C-X-C chemokine receptor type 6 (Homo sapiens) (O00574 whole entry, looked up): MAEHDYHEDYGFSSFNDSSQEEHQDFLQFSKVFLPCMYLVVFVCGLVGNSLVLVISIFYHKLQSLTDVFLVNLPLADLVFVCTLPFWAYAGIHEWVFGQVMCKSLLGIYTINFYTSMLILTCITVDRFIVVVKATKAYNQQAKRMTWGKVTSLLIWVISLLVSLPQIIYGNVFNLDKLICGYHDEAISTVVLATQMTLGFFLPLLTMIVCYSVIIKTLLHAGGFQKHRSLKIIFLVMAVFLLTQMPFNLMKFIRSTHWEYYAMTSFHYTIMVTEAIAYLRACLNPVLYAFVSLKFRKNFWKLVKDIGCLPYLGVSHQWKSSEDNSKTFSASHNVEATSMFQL

COc1cc(N2CCN(C(=O)Cn3nc(C(F)(F)F)c(Cl)c3C)CC2)ccc1Cl
inactive: inhibition [1] | inhibition [2] | Activity [3]

Reference: ChEMBL document CHEMBL2321873, “1-(4-Phenylpiperazin-1-yl)-2-(1H-pyrazol-1-yl)ethanones as novel CCR1 antagonists” (Bioorg Med Chem Lett, 2013)
